Data on 2 molecules can be found in publication PMC4116439 (ChemMedChem, 2014).

For one test, the target named is T1, rM4 (Rattus norvegicus, UniProt P08485).
T1 sequence (P08485 1-478): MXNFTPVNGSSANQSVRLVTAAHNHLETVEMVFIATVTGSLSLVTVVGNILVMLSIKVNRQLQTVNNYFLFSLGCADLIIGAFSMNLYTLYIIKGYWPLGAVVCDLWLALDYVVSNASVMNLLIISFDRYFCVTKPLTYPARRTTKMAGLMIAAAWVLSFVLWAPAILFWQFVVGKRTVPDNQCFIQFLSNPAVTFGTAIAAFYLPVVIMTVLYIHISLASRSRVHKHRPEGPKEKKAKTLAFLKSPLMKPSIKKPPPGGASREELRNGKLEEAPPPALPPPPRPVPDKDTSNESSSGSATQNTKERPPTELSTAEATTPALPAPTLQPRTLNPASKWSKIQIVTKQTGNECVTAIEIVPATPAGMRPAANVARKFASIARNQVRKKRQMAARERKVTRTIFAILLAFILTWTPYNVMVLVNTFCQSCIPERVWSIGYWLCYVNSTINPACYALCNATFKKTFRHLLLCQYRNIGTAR
Briefly: rat M4 functional assay. It is filed as cell-based. The settings on record: read-out: rM4 IC50, printed as rM1-rM4.

For the next test, the target named is T2, rM1 (Rattus norvegicus, UniProt P08482).
T2 sequence (P08482 1-460): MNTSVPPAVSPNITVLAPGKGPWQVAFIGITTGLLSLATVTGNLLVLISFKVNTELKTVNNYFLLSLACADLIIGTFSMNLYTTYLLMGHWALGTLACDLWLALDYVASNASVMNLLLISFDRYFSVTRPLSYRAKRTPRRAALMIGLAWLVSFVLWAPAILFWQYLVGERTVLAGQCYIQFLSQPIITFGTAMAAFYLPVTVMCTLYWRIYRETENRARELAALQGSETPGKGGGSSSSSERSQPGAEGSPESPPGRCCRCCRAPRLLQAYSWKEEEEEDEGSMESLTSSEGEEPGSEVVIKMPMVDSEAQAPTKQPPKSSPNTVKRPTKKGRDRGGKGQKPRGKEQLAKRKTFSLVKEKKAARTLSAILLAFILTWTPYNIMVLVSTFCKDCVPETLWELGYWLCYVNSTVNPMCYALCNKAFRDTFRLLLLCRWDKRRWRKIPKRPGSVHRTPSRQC
Kind of test: rat M1 functional assay. The settings on record: read-out: rM1 IC50, printed as rM1-rM4. It is filed as cell-based.

A further test deals with rM3 (Rattus norvegicus, UniProt P08483). Kind of test: rat M3 functional assay. The settings on record: read-out: rM3 IC50, printed as rM1-rM4. It is filed as cell-based.
A further test concerns the target T3, rM2 (Rattus norvegicus, UniProt P10980).
T3 sequence (P10980 1-466): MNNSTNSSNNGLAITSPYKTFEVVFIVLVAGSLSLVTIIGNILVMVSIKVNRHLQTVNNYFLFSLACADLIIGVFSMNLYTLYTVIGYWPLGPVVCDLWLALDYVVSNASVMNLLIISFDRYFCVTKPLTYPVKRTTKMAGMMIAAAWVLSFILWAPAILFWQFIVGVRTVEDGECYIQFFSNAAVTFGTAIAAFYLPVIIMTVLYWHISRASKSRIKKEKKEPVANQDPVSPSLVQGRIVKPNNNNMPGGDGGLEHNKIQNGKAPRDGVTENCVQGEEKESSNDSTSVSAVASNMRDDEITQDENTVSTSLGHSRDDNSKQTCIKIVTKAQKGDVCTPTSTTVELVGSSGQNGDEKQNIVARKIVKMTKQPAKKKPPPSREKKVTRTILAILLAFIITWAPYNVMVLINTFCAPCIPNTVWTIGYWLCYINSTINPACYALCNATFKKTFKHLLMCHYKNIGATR
Briefly: rat M2 functional assay. It is filed as cell-based. The settings on record: read-out: rM2 IC50, printed as rM1-rM4.

Test [1] concerns 68 GPCRs, ion channels and transporters. Briefly: Eurofins radioligand binding panel. The settings on record: 10 μM, 68 targets.
For the next test, the target named is T4, human M1 (Homo sapiens, UniProt P11229).
T4 sequence (P11229 1-460): T2 sequence (P08482 1-460) with V5A, S254T, S309P, K320R, G337A, V413I
The settings on record: read-out: hM1 IC50; printed as hM1-M4; cited from earlier work.

Another test has as its target T5, human M4 (Homo sapiens, UniProt P08173).
T5 sequence (P08173 1-479): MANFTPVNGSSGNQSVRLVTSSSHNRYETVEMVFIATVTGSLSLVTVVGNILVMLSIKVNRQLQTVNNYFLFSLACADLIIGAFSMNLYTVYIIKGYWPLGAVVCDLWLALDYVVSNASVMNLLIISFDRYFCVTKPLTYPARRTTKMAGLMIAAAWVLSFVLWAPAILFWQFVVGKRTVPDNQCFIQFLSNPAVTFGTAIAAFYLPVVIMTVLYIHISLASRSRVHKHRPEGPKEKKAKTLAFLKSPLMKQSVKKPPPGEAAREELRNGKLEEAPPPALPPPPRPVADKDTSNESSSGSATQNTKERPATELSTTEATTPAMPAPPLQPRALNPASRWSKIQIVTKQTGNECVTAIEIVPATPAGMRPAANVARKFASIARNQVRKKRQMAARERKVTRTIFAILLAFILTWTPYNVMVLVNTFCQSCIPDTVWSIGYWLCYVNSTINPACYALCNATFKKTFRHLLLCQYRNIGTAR
The settings on record: read-out: hM4 IC50; printed as hM1-M4; cited from earlier work.

The target of a further test is T6, human M2 (Homo sapiens, UniProt P08172).
T6 sequence (P08172 1-466): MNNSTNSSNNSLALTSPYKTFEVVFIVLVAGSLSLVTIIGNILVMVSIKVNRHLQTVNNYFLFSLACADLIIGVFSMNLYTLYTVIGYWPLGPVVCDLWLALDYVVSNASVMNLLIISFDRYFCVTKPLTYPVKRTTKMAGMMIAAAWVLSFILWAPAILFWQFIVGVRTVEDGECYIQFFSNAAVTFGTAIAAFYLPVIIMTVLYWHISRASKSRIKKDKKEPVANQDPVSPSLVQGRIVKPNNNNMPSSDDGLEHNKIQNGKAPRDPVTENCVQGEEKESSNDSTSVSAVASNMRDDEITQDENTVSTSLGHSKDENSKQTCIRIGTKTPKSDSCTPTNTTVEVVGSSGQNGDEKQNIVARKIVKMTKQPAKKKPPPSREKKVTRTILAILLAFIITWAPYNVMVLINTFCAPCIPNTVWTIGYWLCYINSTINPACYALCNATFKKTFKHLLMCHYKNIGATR
The settings on record: read-out: hM2 IC50; printed as hM1-M4; cited from earlier work.

A further test deals with human M3 (Homo sapiens, UniProt P20309). The settings on record: read-out: hM3 IC50; printed as hM1-M4; cited from earlier work.

Substitutions are numbered along the chain they refer to.

Sequence of rM3 (P08483 whole entry): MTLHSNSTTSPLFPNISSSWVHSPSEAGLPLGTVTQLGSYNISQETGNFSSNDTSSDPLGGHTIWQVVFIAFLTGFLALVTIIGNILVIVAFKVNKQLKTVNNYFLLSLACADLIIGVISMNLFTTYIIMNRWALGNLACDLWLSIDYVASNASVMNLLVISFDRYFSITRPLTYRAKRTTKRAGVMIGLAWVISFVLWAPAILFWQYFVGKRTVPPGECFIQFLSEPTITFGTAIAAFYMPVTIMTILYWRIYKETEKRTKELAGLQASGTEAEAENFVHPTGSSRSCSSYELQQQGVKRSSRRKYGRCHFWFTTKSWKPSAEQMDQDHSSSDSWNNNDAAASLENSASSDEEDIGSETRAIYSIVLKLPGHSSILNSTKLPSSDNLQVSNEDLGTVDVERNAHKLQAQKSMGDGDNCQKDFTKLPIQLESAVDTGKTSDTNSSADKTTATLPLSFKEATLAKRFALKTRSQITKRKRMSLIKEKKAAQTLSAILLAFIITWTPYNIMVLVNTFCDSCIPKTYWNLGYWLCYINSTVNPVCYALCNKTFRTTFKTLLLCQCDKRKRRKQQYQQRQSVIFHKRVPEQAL
Sequence of human M3 (P20309 whole entry): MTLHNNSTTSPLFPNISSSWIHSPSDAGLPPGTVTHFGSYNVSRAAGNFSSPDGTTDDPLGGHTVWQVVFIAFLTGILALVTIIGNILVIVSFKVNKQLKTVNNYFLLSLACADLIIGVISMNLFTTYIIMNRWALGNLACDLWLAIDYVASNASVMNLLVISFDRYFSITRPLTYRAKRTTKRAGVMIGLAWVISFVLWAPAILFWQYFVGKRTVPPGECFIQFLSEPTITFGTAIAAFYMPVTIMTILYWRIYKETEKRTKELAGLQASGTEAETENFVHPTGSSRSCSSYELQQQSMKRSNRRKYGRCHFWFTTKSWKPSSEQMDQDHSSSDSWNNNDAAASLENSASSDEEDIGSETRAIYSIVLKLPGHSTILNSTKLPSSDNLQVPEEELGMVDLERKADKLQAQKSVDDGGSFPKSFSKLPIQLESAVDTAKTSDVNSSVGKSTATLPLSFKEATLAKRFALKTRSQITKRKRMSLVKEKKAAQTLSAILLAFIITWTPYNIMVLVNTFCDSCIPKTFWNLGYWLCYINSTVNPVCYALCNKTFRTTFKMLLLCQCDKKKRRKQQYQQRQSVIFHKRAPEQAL

As for `CC(=O)c1cccc(OCc2cc(C(=O)N(C)[C@@H](C)c3ccccn3)no2)c1` [(S)-16], the IC50 on rM4, on rM1, at rM3 and at rM2 was greater than 30 µM each time. Besides, the “inhibition in radioligand binding panel” value in [1] is no more than 50%.

As for `O=C(c1ccc(F)c(F)c1)N1CCN2C(=O)c3ccccc3[C@@]12c1ccc(Cl)cc1` [compound 5], the IC50 on human M1, on human M4, at human M2 and at human M3 was greater than 30 µM in each case.
